The values below are quoted from earlier work in US20230148652A1, “ORAL PRODUCTS WITH NICOTINE-POLYMER COMPLEX” (NICOVENTURES TRADING LIMITED, priority 2021, published 2023).

For data set [1] the following is noted: partition between octanol and water.

A word on the logP: it is the decadic logarithm of the partition coefficient of the neutral form, usually between octanol and water. Turning to `CC(C)[C@@H]1CC[C@@H](C)C[C@H]1OC(=O)CCC(=O)O` [monomenthyl succinate], the logP in data set [1] is 3.
ethyl benzoic acid: in data set [1], the logP is 2.9.
Consider `COC(=O)/C=C/C(C)=C\C=C\C(C)=C\C=C\C=C(C)\C=C\C=C(C)\C=C\C(=O)O` [bixin, (2E,4E,6E,8E,10E,12E,14E,16Z,18E)-20-methoxy-4,8,13,17-tetramethyl-20-oxoicosa-2,4,6,8,10,12,14,16,18-nonaenoic acid], for which the solubility entry was “soluble in fats and alcohols but insoluble in water”. Further, the chemical stability result (when isolated) is “chemically unstable when isolated”.
On to isopropyl benzoic acid, for which the logP in data set [1] is given as 3.5.
For `CC(/C=C/C=C(C)/C=C/C(=O)O)=C\C=C\C=C(C)\C=C\C=C(C)\C=C\C(=O)O` (stereo in doubt) [norbixin, (2E,4E,6E,8E,10E,12E,14E,16E,18E)-4,8,13,17-tetramethylicosa-2,4,6,8,10,12,14,16,18-nonaenedioic acid], the solubility result is given as “water soluble”.
